Assay results taken from US10675267B2, “Methods for detection and eradication of myeloid leukemia stem cells” (priority 2015, dated 2020).

Test system: HEK293 cells
Assay: In vitro splicing of endogenous transcripts (qRT-PCR, RT-PCR) in HEK293
Type: cell-based
Procedure: (§1) For qRT-PCR analysis of relative total mRNA expression levels or splice isoform-specific expression analyses, cDNA was synthesized using 50 ng-1 pg of template RNA in 20 μL reaction volumes using the First-Strand SUPERSCRIPT™ III Reverse Transcriptase Supermix (Life Technologies) followed by incubation with RNase H according to the manufacturer's protocol and as described previously. All cDNA products were stored at −20° C. Splice isoform-specific primers for PTK2B-202 were designed to bind to unique exon junctions for this transcript, which lacks exon 24. […] For standard qRT-PCR, human HPRT mRNA transcript levels were used to normalize Ct values obtained for each gene, and relative expression levels were calculated using the 2^−ddCt method. […]
as §1, with “[…]” for “pg”, “[…]” for “μL”, “previously (Abrahamsson et al., 2009; Crews et al., 2015).” for “previously. All cDNA products were stored at −20° C. Splice isoform-specific primers for PTK2B-202 were designed to bind to unique exon junctions for this transcript, which lacks exon 24.”, “2-ddCt” for “2^−ddCt”

SMILES: CC[C@H](OC)[C@@H](C)[C@H]1O[C@@H]1[C@@H](O)[C@H](C)/C=C/C=C(\C)[C@H]1OC(=O)C[C@H](O)CC[C@@](C)(O)[C@@H](OC(C)=O)/C=C/[C@@H]1C (stereo in doubt) [Formula 17S-FD-895, 17S-FD-895]
- MCL1-S expression (qRT-PCR) (HEK293, 0.01-10 μM, 4 hrs): low doses of 17S-FD-895 increased MCL1-S expression, this effect was reversed at high doses
- DNAJB1 intron 2 levels (HEK293 cells, compared with MOLM-13): to a lesser extent
